Here are results for 3 molecules from patent US9067894B1, “Compound, composition, and method of activating GIRK potassium channel and use of same for treating conditions of interest” (Vanderbilt University, priority 2013, dated 2015).

Assay [1] can be described thus: Maximal electroshock (MES) model of epilepsy. The assay is classed as in vivo, mouse. Conditions: mice, i.p.; VU0456810 60 mg/kg, sodium valproate 150 mg/kg; vs vehicle. As for the experimental part: MES stimulation was applied, 30 minutes after injection, through transauricular (ear-clip) electrodes from an electroshock apparatus, HSE Shock Stimulator Type 221, (Harvard Apparatus, Holliston, Mass.) using the following parameters: 100-mA fixed current, a 50-60-Hz pulse frequency, a 0.6-ms pulse width and a 0.3-s stimulus duration. Animals were restrained by hand when applying the electrodes and released at the moment of stimulation to permit observation of the seizure throughout its entire course. Upon completion of the electrical stimulus, the amount of time until death was recorded. […] In this modified MES test, the electrical stimulus that was applied was sufficient to induce seizures and death from maximal seizure in 100% of the control mice.
(§1) In all cases, experiments were conducted in a blind manner with respect to the experimenters. Data were evaluated in Excel using one-tailed, unpaired Student's t-test, assuming populations with unequal variance.

Assay [2] in a line: Pentylenetetrazol (PTZ)-induced seizure model. Conditions: mice, i.p.; VU0456810 60 mg/kg, sodium valproate 150 mg/kg; PTZ 40 mg/kg; 20 minute timeframe. It counts as in vivo, mouse. Here is the method:
After thirty minutes, PTZ was administered intraperitoneally (i.p., 40 mg/kg). Immediately following administration of PTZ, the amount of time elapsed before the first occurrence of tremors, tonic-clonic seizures, convulsion, and death was recorded. All mice were subject to a 20-minute post-[…] cutoff.
as §1

The next assay concerns the target T1, GIRK1/2 (Homo sapiens, UniProt P48051+P48549).
T1 sequence (P48549 1-501): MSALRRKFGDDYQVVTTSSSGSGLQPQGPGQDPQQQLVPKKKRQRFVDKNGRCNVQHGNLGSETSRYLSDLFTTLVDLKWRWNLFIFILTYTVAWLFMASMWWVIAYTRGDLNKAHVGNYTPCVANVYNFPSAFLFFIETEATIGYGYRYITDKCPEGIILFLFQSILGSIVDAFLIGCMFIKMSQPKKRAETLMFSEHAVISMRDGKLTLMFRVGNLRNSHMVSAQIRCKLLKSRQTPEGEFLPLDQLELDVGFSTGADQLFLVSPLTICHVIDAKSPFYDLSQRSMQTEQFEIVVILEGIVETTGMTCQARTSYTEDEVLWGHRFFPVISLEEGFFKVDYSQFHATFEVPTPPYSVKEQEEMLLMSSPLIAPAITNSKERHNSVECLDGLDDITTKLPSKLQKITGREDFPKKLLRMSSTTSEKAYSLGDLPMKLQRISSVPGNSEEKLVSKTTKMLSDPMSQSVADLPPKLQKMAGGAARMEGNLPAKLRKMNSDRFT
T1 sequence (P48051 1-423): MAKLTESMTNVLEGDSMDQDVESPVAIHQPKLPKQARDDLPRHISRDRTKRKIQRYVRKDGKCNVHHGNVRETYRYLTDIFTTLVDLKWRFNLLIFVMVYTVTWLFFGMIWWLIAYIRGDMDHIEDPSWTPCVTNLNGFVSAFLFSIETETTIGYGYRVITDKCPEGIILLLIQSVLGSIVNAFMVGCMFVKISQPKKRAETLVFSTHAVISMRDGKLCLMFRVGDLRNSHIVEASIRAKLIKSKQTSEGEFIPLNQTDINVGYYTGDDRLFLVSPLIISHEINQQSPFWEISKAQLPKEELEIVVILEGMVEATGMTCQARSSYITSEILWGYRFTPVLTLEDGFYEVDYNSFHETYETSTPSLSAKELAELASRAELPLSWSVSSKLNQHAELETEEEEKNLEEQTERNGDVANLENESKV
The assay is described as follows: Thallium flux, pertussis toxin-treated cells co-expressing mGlu8 and GIRK1/2. It counts as cell-based. Details: host or cells: HEK-293. The conditions noted are these: 600 ng/ml pertussis toxin; VU0456810 10 μM, glutamate 100 μM. The source says:
Cell Line Construction and Cell Culture. HEK-293 cells co-expressing human GIRK1/2 and rat mGlu8 were generated as previously described (Niswender et al., 2008). A HEK-293 cell line (ATCC, Manassas, Va.) expressing human GIRK1 and human GIRK2 was constructed by transfecting HEK-293 cells with GIRK1 and GIRK2 (Origene, Rockville, Md.) cloned into the pBudCE4.1 vector (Life Technologies, Carlsbad, Calif.) using FuGene 6 (Promega, Madison, Wis.) transfection reagent. Unless otherwise noted, other ion channel-expressing cells were prepared by transfecting HEK-293 cells with individual or combinations of subunits: GIRK1, pCMV6-A-BSD; GIRK2, pCMV6-A-puro; GIRK3, pCMV6-A-hygro; GIRK4, pCMV6-A-AC; Kv7.4, pIRESneo3. The Kir2.1 and hERG-expressing cell lines were made by transfecting T-REx-293 cells (Life Technologies, Carlsbad, Calif.) with Kir2.1 and Kv11.1, respectively, cloned into pcDNA5TO. Monoclonal cell lines were produced by limiting-dilution cloning of antibiotic-resistant cells and functional selection using the thallium flux assay described below. Unless otherwise noted, cells were maintained in Minimal Essential Medium, Alpha Medium (Mediatech, Manassas, Va.) supplemented with 10% fetal bovine serum (Sigma-Aldrich, Saint Louis, Mo.) and GlutaGro (Mediatech, Manassas, Va.), referred to henceforth as cell culture medium. […]

Another assay concerns GIRK. The conditions noted are these: read-out: potency / reported EC50 as GIRK activator; cited from earlier work.

Structures are written as SMILES. “And” between values parts separate entries of the source, which are not always exact repeats. Equal values may be shown once.

For the molecule `CCCC(CCC)C(=O)[O-].[Na+]` [sodium valproate, reference compound], the “latency of seizure onset” value in assay [1] was “highly significant delays in seizure onset”. In assay [2], the “animals experiencing convulsions from PTZ treatment” value was “significant decrease” and the “animals surviving PTZ treatment” value is recorded as “significant increase”.

For `N[C@@H](CCC(=O)O)C(=O)O` [glutamate, reference compound], at GIRK1/2, the “effect of pertussis toxin treatment on evoked thallium flux” value is given as “abolishing”.

Consider `C[C@@H]1O[C@@H](O[C@H]2[C@H](Oc3cc(O)c4c(c3)O[C@H](c3ccc(O)cc3)CC4=O)O[C@H](CO)[C@@H](O)[C@@H]2O)[C@H](O)[C@H](O)[C@H]1O` [naringin], for which, in the assay with GIRK, the EC50 was ~100 µM and > 100 µM.
